We go through six compounds from ChEMBL document CHEMBL1159365, “Sesquiterpenoids from Artemisia gilvescens and an anti-MRSA compound” (J Nat Prod, 2003).

≈ marks a conversion by molar mass, not a printed value.

For one assay, the system named is HCT-116. In words: Cytotoxicity against human HCT116 cells by MTT assay. The class given is functional, cell-based. Background: Tetrazolium assays rely on reduction of a dye to a coloured formazan, in cell work by metabolically active cells.
One may read the IC50 as the point on the concentration scale where inhibition reaches its midpoint. `C=C1C(=O)O[C@H]([C@H]2C(=O)C=C[C@@]2(C)O)[C@H]1CCC(C)=O` showed an IC50 of 6 µM. This lies in the single-digit micromolar range. Regarding `CC1=CC(=O)c2c(C)cc3oc(=O)c(C)c-3cc21`, the IC50 was determined as 16 µM. Compared with the last compound, the IC50 is about 2.7-fold higher. Same read-out and setting: for `C=C1C(=O)O[C@H]2[C@H]1CC[C@@](C)(O)[C@]13O[C@H]1[C@H]1O[C@@]1(C)[C@H]23` [ARTECANIN] the value was 14 µM.

`C=C1C(=O)O[C@H](C2=C(C)[C@@H](O)CC2=O)[C@H]1CCC(C)=O` [ISOSECOTANAPARTHOLIDE] registered a half-inhibitory concentration (IC50) of 13 µM.

`C=C1C(=O)O[C@H]([C@@H]2C(=O)C=C[C@@]2(C)O)[C@H]1CCC(C)=O` [SECOTANAPARTHOLIDE A] came in with a half-maximal inhibitory concentration (IC50) of 6 µM. Same read-out and setting: for `C=C1C(=O)O[C@H]([C@@H]2C(=O)C=C[C@]2(C)O)[C@H]1CCC(C)=O` [SECOTANAPARTHOLIDE B] the value was 3.3 µM.

A further assay has as its system Staphylococcus aureus. In words: Antimicrobial activity against methicillin-resistant Staphylococcus aureus after 20 hrs. Type of assay: functional.
As a reminder, the MIC is the lowest concentration that inhibits growth of the organism. In turn, `CC1=CC(=O)c2c(C)cc3oc(=O)c(C)c-3cc21` displayed a minimum inhibitory concentration (MIC) of 1.95 µg/mL (≈ 8.12 µM).
